Counter-ions that a name gives are not always drawn.
Legend:
[1] = Triglyceridemia and cholesterolemia in rats given alcohol 10%; assay type: in vivo, Male Sprague-Dawley rats; details: 1 week endoperitoneal once daily (CPIB, BBA 200 mg/kg; C83 50 mg/kg)
Method: | Treatment for 1 week CPIB - BBA - 200 mg/kg endoperitoneal; C83 | 50mg/kg endoperitoneal; only one daily administration. | Male Sprague-Dawley rats 150 gr. | Groups of 6 rats.

[2] = Deepness and rapidity test (untitled table 6); assay type: in vivo, Male Sprague-Dawley rats; details: 200 mg/kg endoperitoneal; for Rapidity ± E.S.: controls 3.4 ± 0.3; for Deepness (mm ± E.S.): controls 74.9 ± 6.2
Method: | Treatment with the dose of 200 mg/kg endoperitoneal, one or two hours | before sacrifice. Male Sprague-Dawley rats with an average weight of 150 | gr.

ulcer induced by aspirin = assay: Anti-ulcerous activity, ulcer from aspirin (9-hydroxy sodium salt); assay type: in vivo, Female rats of the Wistar stock; details: for Ulcer scale (x ± Sx): controls 18.67 ± 3.11
Method: (§1) Also in this case the anti-ulcerous activity is tested on an ulcer induced by aspirin and by phenylbutazone. In both cases lesions of various sizes are formed in the glandular section of the stomach.
Female rats of the Wistar stock weighing 150-175 g are used. 24 hours before the start of the test the animals are made to fast, while they are allowed water at will.
Each test group consists of 12 animals. The aspirin is administered orally as a suspension (45 mg/ml of 0.5% carboxymethyl cellulose suspension, 1 ml per animal). The substance in question is administered 10 minutes before the administration of aspirin, and 21/2 hours after, each time in doses of […] of 100 mg/kg × 10 ml of distilled water. The animals are killed 5 hours after the administration of aspirin, the stomachs are extracted and with a stereomicroscope the number and size of the lesions is evaluated.

[3] = system: ulcer induced by phenylbutazone; assay: Anti-ulcerous activity, ulcer from phenylbutazone (9-hydroxy sodium salt); assay type: in vivo, Female rats of the Wistar stock
Method: as §1
Female rats of the Wistar stock weighing 170 ± 180 g are again involved. The animals are held in constant ambient conditions for at least 2 weeks before the start of the test. 24 hours before the start of the test the animals are made to fast, while they are allowed water at will.
Each test group consists of 10 animals. The substance in question is administered a first time 15 minutes before administration of phenylbutazone (200 mg/kg × 1 ml in 0.5% tragacanth gum solution orally), and a second time 21/2 hours after. The doses of the substance in question amount to 2.5, 10, 50, 100, 200 and respectively 400 mg/kg × 2 ml of 0.5% tragacanth gum solution, orally.
5 hours after the administration of phenylbutazone the animals are killed, the stomachs are extracted, fixed and with the aid of a stereomicroscope magnifying 8 times a point count evaluation is carried out. The lesions of the gastric mucosa are expressed in % of the stomach surface.

[4] = Coagulation test (Time of Quick, Time of Howel); assay type: in vivo, Male Sprague-Dawley rats; details: 200 mg/kg endoperitoneal, 2 hours before
Method: c. Coagulation test: minutes/10 ± E.S.
Coagulation test (Repetition): minutes/100 ± E.S.
(§2) Treatment with the dose of 200 mg/kg endoperitoneal, 2 hours before the test.
Male Sprague-Dawley rate 150 gr.

[5] = Triglycerides and cholesterol in rats on Nath diet, 25 and 50 mg/kg endoperitoneal; assay type: in vivo, male Sprague-Dawley rats; details: 1 week
Method: Treatment with 25 and 50 mg/kg/die endoperitoneal for 1 week on male
Sprague-Dawley rats of 150 gr.

Glycemia test at fast = assay type: in vivo, Male Sprague-Dawley rats; details: 200 mg/kg endoperitoneal, 2 hours before the test
Method: b. Glycemia test at fast: mg/100 ml blood in toto ± E.S.
Glycemia test at fast (Repetition): mg/100 ml blood in toto ± E.S.
as §2
Male Sprague-Dawley rats 150 grs.

mouse = assay: LD50 by mouth in the mouse; assay type: in vivo
Method: (§3) a. LD50 by mouth in the mouse about 3000 mg/kg
(§4) 25 gr of XVI are dissolved in 400 ml of water with NaOH 15% to pH 9, filtered and lyophilized : 24 gr of sodium salt of XVI as a white solid are obtained, humidity (K. Fisher) 2.08%, no U.V. absorption, equivalent weight found 301.7, I.R. bands at 3400, 1765, 1565, 1460, 1420, 1378 cm^-1.
(§5) After 20 hours at 20°, the solvent is evaporated in vacuo, the residue is dissolved in 1300 ml of water treated with 120 ml of acetic acid, extracted with chloroform. After solvent evaporation, 65.1 gr of the compound XVIII are obtained, as an oil, I.R. bands at 3420, 3100, 1710 cm^-1. 35 gr of the compound XVIII are dissolved in 600 ml of water with NaOH to pH 9. The solution is filtered and lyophilized: 35.5 gr of sodium salt of 9-hydroxy-19,20-bis-nor-prostanoic acid are obtained, as white solid, humidity (K.Fisher) 1.73%, no U.V. absorption, equivalent weight found 320, I.R. bands at 3400, 3300, 1565, 1460, 1390 cm^-1, LD50 by mouth in mice about 3000 mg/kg.

[6] = LD50 by mouth in the mouse; assay type: in vivo; details: in vivo, po
Method: as §3, §4, §5

[7] = Triglycerides and cholesterol in rats on Nath diet, endoperitoneal or by mouth; assay type: in vivo, male Sprague-Dawley rats; details: 1 week
Method: Treatment with 25 mg/kg/die for 1 week on male Sprague-Dawley rats of 150

With `CCCCCCC1CCC(O)C1CCCCCCC(=O)O` (stereo not drawn) [Compound C83, 9-hydroxy-19,20-bis-nor-prostanoic acid sodium salt] the Cholesterolemia ([1]; controls 91.5 ± 6.6, alcohol 81.0 ± 4.6) was 56.3 ± 3.9, the Triglyceridemia ([1]; controls 97.8 ± 5.1, alcohol 169.0 ± 25.0) was 85.2 ± 13.5 and the “Rapidity ± E.S.” value ([2]; 1 hour before sacrifice) was 1.6 ± 0.2. For the same molecule, the “Deepness (mm ± E.S.)” value ([2]; 1 hour before sacrifice) was 29.1 ± 3.6 mm, the “Rapidity ± E.S.” value ([2]; 2 hours before sacrifice) was 3.3 ± 0.7 and the “Deepness (mm ± E.S.)” value ([2]; 2 hours before sacrifice) was 67.3 ± 12.6 mm. For the same molecule, the “Ulcer scale (x ± Sx)” value (ulcer induced by aspirin; 2 × 10 mg/kg, p<0.001) was 4.83 ± 1.09, the “Ulcer scale (x ± Sx)” value (ulcer induced by aspirin; 2 × 100 mg/kg, p<0.05) was 8.92 ± 1.91 and the “mitigation of ulcerating effect of aspirin (in words)” value (ulcer induced by aspirin; both doses) was “considerably mitigates the ulcerating effect of aspirin”. For the same molecule, the “correlation between dose and inhibition of ulcer surface area (in words)” value ([3]; FIG. 1) was “highly significant correlation between the dose and the inhibition of the surface area of the ulcer”, the ED50 ([3]; Rattus norvegicus, po, orally, calculated from the regression lines, read-out: DE 50 (inhibition of the surface area of the ulcer)) was 37 mg/kg and the “Surface area of the ulcer in % with respect to surface area of the stomach (x ± Sx)” value (shortened to “Surface area of the ulcer in %”) ([3]; orally, 2 × 2.5 mg/kg, controls 0.80 ± 3.26) was 0.57 ± 2.10%. The “Surface area of the ulcer in %” value ([3]; orally, 2 × 10 mg/kg, controls 3.60 ± 3.33) was 2.13 ± 2.22%, the “Surface area of the ulcer in %” value ([3]; orally, 2 × 25 mg/kg, controls 0.80 ± 3.26) was 0.33 ± 1.59% and the “Surface area of the ulcer in %” value ([3]; orally, 2 × 50 mg/kg, controls 3.57 ± 3.59) was 1.30 ± 1.74%. The “Surface area of the ulcer in %” value ([3]; orally, 2 × 100 mg/kg, controls 3.60 ± 3.33) was 1.97 ± 1.44%, the “Surface area of the ulcer in %” value ([3]; orally, 2 × 200 mg/kg, controls 3.57 ± 3.59, p<0.02) was 0.27 ± 0.53% and the “Time of Quick (± E.S.)” value ([4]; controls 25.3 ± 0.2, p < 0.001) was 29.0 ± 0.4 minutes/10. For the same molecule, the “Time of Howel (± E.S.)” value ([4]; controls 84.5 ± 1.6, p < 0.001) was 98.8 ± 0.9 minutes/10, the “Time of Quick (Repetition) (± E.S.)” value ([4]; repetition, controls 25.8 ± 0.4, p < 0.001) was 29.3 ± 0.3 minutes/100 and the “Time of Howel (Repetition) (± E.S.)” value ([4]; repetition, controls 95.0 ± 1.5, p < 0.001) was 118.8 ± 2.4 minutes/100. The cholesterol ([5]; 25 mg/kg/die endoperitoneal, controls 64.4 ± 2.8, Nath diet 180.0 ± 15.8, p<0.01 vs Nath diet) was 108.3 ± 13.9, the triglycerides ([5]; 25 mg/kg/die endoperitoneal, controls 91.1 ± 13.5, Nath diet 135.2 ± 22.8) was 81.5 ± 13.3 and the triglycerides ([5]; 50 mg/kg/die endoperitoneal, Nath diet 135.2 ± 22.8, p<0.01 vs Nath diet) was 49.1 ± 6.1. The cholesterol ([5]; 50 mg/kg/die endoperitoneal, Nath diet 180.0 ± 15.8, p<0.001 vs Nath diet) was 101.8 ± 4.4, the “Glycemia at fast (± E.S.)” value (Glycemia test at fast; controls 63.8 ± 4.1, p < 0.001) was 99.3 ± 2.7 mg/100 ml blood in toto and the “Glycemia at fast (Repetition) (± E.S.)” value (Glycemia test at fast; repetition, controls 81.1 ± 3.5, p < 0.01) was 121.4 ± 9.8 mg/100 ml blood in toto. The LD50 (mouse) was “about 3000 mg/kg”, the LD50 [6] was ~3000 mg/kg and the triglycerides ([7]; 25 mg/kg/die by mouth, Nath diet 134.9 ± 9.4, p<0.05 vs Nath diet) was 109.4 ± 6.9. For the same molecule, the cholesterol ([7]; 25 mg/kg/die by mouth, Nath diet 333.3 ± 29.9) was 380.2 ± 77.8, the cholesterol ([7]; 25 mg/kg/die endoperitoneal, controls 72.6 ± 4.3, Nath diet 333.3 ± 29.9, p<0.001 vs Nath diet) was 168.3 ± 26.8 and the triglycerides ([7]; 25 mg/kg/die endoperitoneal, controls 96.9 ± 9.4, Nath diet 134.9 ± 9.4, p<0.05 vs Nath diet) was 91.9 ± 16.3.

— patent US4073938A, “19,20-Bis-nor-prostenoic acids as hypolipemic compounds” (Istituto Biochimico Italiano di Loredana Lorenzini S.a.s., priority 1974, dated 1978)
